Experimental data as given in patent US20190002448A1, “SUBSTITUTED BENZOFURANYL AND BENZOXAZOLYL COMPOUNDS AND USES THEREOF” (Karyopharm Therapeutics Inc., priority 2015, published 2019).

Assays:
Format in all cases: cell-based
3T3 cells = assay: MTT cell proliferation assay, 3T3 cells; details: Mus musculus, NIH3T3; 3T3 fibroblast cells; approximately 64-72 hours incubation
Protocol: (§1) The MTT cell proliferation assay was used to study the cytotoxic properties of the compounds. The assay was performed according to the method described by Roche Molecular Biochemicals, with minor modifications. The assay is based on the cleavage of the tetrazolium salt, MTT, in the presence of an electron-coupling reagent. The water-insoluble formazan salt produced must be solubilized in an additional step. Cells grown in a 96-well tissue culture plate were incubated with the MTT solution for approximately 4 hours. After this incubation period, a water-insoluble formazan dye formed. After solubilization, the formazan dye was quantitated using a scanning multi-well spectrophotometer (ELISA reader). […] The cells were seeded at 5,000-10,000 cells in each well of 96-well plate in 100 μL of fresh culture medium and were allowed to attach overnight. The stock solutions of the compounds were diluted in 100 μL cell culture medium to obtain eight concentrations of each test compound, ranging from 1 nM to 30 μM. […] All optical densities were measured at 490 nm using a Vmax Kinetic Microplate Reader (Molecular Devices). In most cases, the assay was performed in duplicate and the results were presented as a mean percent inhibition to the negative control±SE. The following formula was used to calculate the percent of inhibition: Inhibition (%)=(1−(ODo/OD))×100.
(§2) The compounds were tested against MS751, Z138 and 3T3 cells. The MS751 cell line is derived from a metastasis to lymph node of human cervix from a patient diagnosed with squameous cell carcinoma of the cervix. The Z138 cell line is a mature B-cell acute lymphoblastic leukemia cell line derived from a patient with chronic lumphocytic leukemia. 3T3 cells are standard fibroblast cells; they were originally isolated from Swiss mouse embryo tissue.

Z138 cells = assay: MTT cell proliferation assay, Z138 cells; details: Homo sapiens, Z-138, approximately 64-72 hours incubation
Protocol: as §1, §2

MS751 cells = assay: MTT cell proliferation assay, MS751 cells; details: Homo sapiens; MS751 cervical squamous cell carcinoma cells; approximately 64-72 hours incubation; read-out: MTT Assay IC50 MS-751
Protocol: as §1, §2

Measured: IC50

Nc1ccc(/C=C/C(=O)NCc2cc3cc(-c4ccc(C(=O)N5CCC(F)(F)CC5)cc4F)cc(OC4CCC4)c3o2)cn1 [Compound 105, (E)-3-(6-aminopyridin-3-yl)-N-((7-cyclobutoxy-5-(4-(4,4-difluoropiperidine-1-carbonyl)-2-fluorophenyl)benzofuran-2-yl)methyl)acrylamide]
0.1 to 5 µM: all assays above

Nc1ccc(/C=C/C(=O)NCc2cc3cc(-c4ccc(C(=O)N5CCC(F)(F)CC5)cc4F)cc(Oc4ccc(F)cc4)c3o2)cn1 [Compound 103, (E)-3-(6-aminopyridin-3-yl)-N-((5-(4-(4,4-difluoropiperidine-1-carbonyl)-2-fluorophenyl)-7-(4-fluorophenoxy)benzofuran-2-yl)methyl)acrylamide]
0.1 to 5 µM: all assays above

Nc1ccc(/C=C/C(=O)NCc2cc3cc(-c4ccc(C(=O)N5CCC(F)(F)CC5)cc4)cc(Oc4cccc(F)c4)c3o2)cn1 [Compound 101, (E)-3-(6-aminopyridin-3-yl)-N-((5-(4-(4,4-difluoropiperidine-1-carbonyl)phenyl)-7-(3-fluorophenoxy)benzofuran-2-yl)methyl)acrylamide]
0.1 to 5 µM: all assays above

Nc1ccc(/C=C/C(=O)NCc2cc3cc(-c4ccc(C(=O)N5CCC(F)(F)CC5)cc4)cc(OC4CCC4)c3o2)cn1 [Compound 104, (E)-3-(6-aminopyridin-3-yl)-N-((7-cyclobutoxy-5-(4-(4,4-difluoropiperidine-1-carbonyl)phenyl)benzofuran-2-yl)methyl)acrylamide]
0.1 to 5 µM: all assays above

Nc1ccc(/C=C/C(=O)NCc2cc3cc(-c4ccc(C(=O)N5CCC(F)(F)CC5)cc4F)cc(Oc4cccc(F)c4)c3o2)cn1 [Compound 102, (E)-3-(6-aminopyridin-3-yl)-N-((5-(4-(4,4-difluoropiperidine-1-carbonyl)-2-fluorophenyl)-7-(3-fluorophenoxy)benzofuran-2-yl)methyl)acrylamide]
0.1 to 5 µM: all assays above

Nc1ccc(/C=C/C(=O)NCc2cc3cc(-c4ccc(C(=O)N5CCC(F)(F)CC5)cc4)cc(Oc4ccc(F)cc4)c3o2)cn1 [Compound 100, (E)-3-(6-aminopyridin-3-yl)-N-((5-(4-(4,4-difluoropiperidine-1-carbonyl)phenyl)-7-(4-fluorophenoxy)benzofuran-2-yl)methyl)acrylamide]
0.1 to 5 µM: all assays above
